# Test results published in US20230226016A1, “AGENTS AND METHODS FOR TREATING TAUOPATHIES” (The Regents of University of California, priority 2020, published 2023).
# Key:
# crude AD brain extract = assay: Seeding by crude AD brain extract in tau biosensor cells, Ferumoxytol conjugates, no pre-incubation; assay type: cell-based, human; settings: mixed with extract and immediately transfected
# From the text: (A) Seeding by crude AD brain extract measured in tau biosensor cells that were co-transfected with nanoparticles coupled to EGCG by linkers of varying length. (B-C) Negative-stain electron micrographs of EGCG-conjugated and non-conjugated nanoparticles. Nanoparticle coupled with EGCG analog 5c (B) cluster with fibrils of AD-tau. No clustering is seen between non-conjugated nanoparticles and AD-tau fibrils (C).
# We tested the activity of Ferumoxytol conjugated EGCG analogs using the biosensor cell assay described above, except we omitted the pre-incubation step such that our assay more closely resembled the scenario of therapeutic intervention, for which there is no pre-incubation period. Nanoparticle conjugated EGCG derivative was mixed with crude AD brain extract and immediately transfected into tau biosensor cells.
# AD crude brain extracts = assay: Seeding by crude AD brain extract pre-treated with inhibitor, tau biosensor cells (Example 5); assay type: cell-based, human; settings: 10 μM final on cells, pre-incubated 16-18 hours
# From the text: (A) Seeding by crude AD brain extract pre-treated with EGCG or experimental linker-conjugated analogs, as indicated. Inhibitor activity is read-out by measuring seeding in tau biosensor cells. Seeding is taken as a proxy for the fibril load that is contained within the AD crude brain extracts. Reduction in fibril load following treatment with experimental linker-conjugated analogs of EGCG reduces prion-like seeding by AD-tau nearly as effectively as EGCG itself. (B) Representative fluorescence images of tau biosensor cells experiments from A. Intracellular aggregates seeded by crude AD brain extracts are identified as puncta (green dots in the “No inhibitor” treated sample, left fluorescence micrograph). Inhibitor treatment reduces the number of puncta (right fluorescence micrograph). The number of puncta as a function of inhibitor pre-treatment is plotted in A.
# We next tested if the D-ring site of triazole-linked amino PEGylation would interfere with tau fibril disaggregation observed for EGCG. […] Crude extract of autopsied brain tissue of a donor with AD (prepared as described in the SI) were pre-incubated with inhibitors (10 μM final concentration on cells) for 16-18 hours and resulting homogenates were added to the cells for imaging 3 days later.
# [1] = molecular target: T1, recombinant tau-K18+ fibrils (Homo sapiens, UniProt P10636); assay: Isothermal titration calorimetry (ITC); settings: 750 μM EGCG into 75 μM fibrils, 1 site binding model
# T1 sequence (P10636 561-697): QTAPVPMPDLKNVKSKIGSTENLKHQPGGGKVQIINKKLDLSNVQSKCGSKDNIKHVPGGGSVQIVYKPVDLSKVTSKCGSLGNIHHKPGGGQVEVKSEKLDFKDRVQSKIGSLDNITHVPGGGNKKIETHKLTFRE
# Procedure: (§1) (a) Isothermal titration calorimetry (ITC) of 750 μM EGCG into 75 μM recombinant tau-K18+ fibrils. The binding isotherm was fit using a standard 1 site binding model. (b) ThT assay showing the effect EGCG or negative control, doxycycline, have on the aggregation of 20 μM tau-K18+ monomer^33, a construct that contains all of the residues that are observed in the AD tau fibril core^7,9. Note the sudden drop in ThT signal at 10 hrs (marked by a red arrow) for the sample containing EGCG. (c) Negative stain electron micrographs of 75 μM recombinant tau-K18+ fibrils prior to incubation with EGCG (top) or following 1 or 3 hour incubation with a two-fold molar excess of EGCG at room temperature, as indicated. (d) As in c except EGCG micrographs of tau are of fibrils purified from AD brain tissue and EGCG treatments were carried out at a concentration of 100 μM for a 3 hour or overnight duration at 37° C., as indicated.
# Human Tau tau-K18+(residues Q244-E380 of 4R tau) was expressed in a pNG2 vector in BL21-Gold E. coli cells grown in LB to an OD600=0.8. Cells were induced with 0.5 mM IPTG for 3 hours at 37° C. and lysed by sonication in 20 mM MES buffer (pH 6.8) with 1 mM EDTA, 1 mM MgCl2, 1 mM DTT and HALT protease inhibitor before addition of NaCl 500 mM final concentration. […]
# tau-K18+ monomer = molecular target: T2, tau-K18+ monomer (Homo sapiens, UniProt P10636); assay: ThT aggregation kinetics assay; assay type: biochemical; settings: 20 μM tau-K18+ monomer, equimolar inhibitor
# T2 construct: Human Tau tau-K18+(residues Q244-E380 of 4R tau); made in house; host or cells: E. coli BL21-Gold, pNG2 vector
# T2 sequence (P10636 561-697): as above
# Procedure: as §1
# Concentrated tau-K18+ was diluted into PBS buffer (pH 7.4) to a final concentration of 20 μM with an equimolar ratio of indicated small molecule inhibitor. […] ThT fluorescence was measured with excitation and emission wavelengths of 440 and 480 nm, and averaged curves were generated from triplicate measurements as indicated in the figure legend. […]
# [2] = molecular target: T1, recombinant tau-K18+ fibrils; assay: Negative stain electron microscopy of recombinant tau fibrils; settings: 75 μM fibrils, two-fold molar excess of EGCG, 3 hr, room temperature
# Procedure: as §1
# [3] = tested on: tau fibrils purified from AD brain tissue; assay: Negative stain electron microscopy of AD brain-derived tau fibrils; set-up: species or system human; settings: 100 μM EGCG, overnight, 37° C.
# Procedure: as §1
# To prepare specimens of AD brain-derived tau fibrils for structural studies, we examined negatively stained EM grids of purified tau fibrils from the frontal cortex of AD donor 1 (FIG. 1a) at various times following incubation with EGCG. AD brain-derived tau fibrils were more robust than recombinant tau fibrils and disaggregation was accelerated by incubation at 37° C. […]
# PHFE2 fibrils = PHFE2 fibrils (Homo sapiens, UniProt P10636); assay: ThT measurement of PHFE2 peptide fibrils; settings: 5 mM EGCG, 30 mM fibrils, 30 min incubation
# Procedure: (c) ThT signal of fibrils formed from PHFE2 peptide without EGCG, or following 30 min incubation. Error bars show the standard deviation of triplicate measurements.
# Fibrils were grown at 37° C. in an orbital shaker with shaking at 350 rpm for 3-4 weeks. Solutions were removed from shaking and heat upon appearance of fibrils, confirmed by negative stain EM. For ThT experiments, fibrils were diluted to 30 mM in PBS, and ThT was added to a final concentration of 40 μM. EGCG was added from a concentrated stock to a final concentration of 5 mM where indicated. ThT measurements were carried out as described above, except readings were taken from a 384-well plate with a volume of 35 μl.
# [4] = tested on: crude brain extracts from donors with AD; assay: Inhibition of seeding by crude AD brain extracts in tau biosensor cells; settings: 10 μM
# Procedure: (§2) (a) Seeding following overnight preincubation of AD brain purified tau fibrils with a final inhibitor concentration of 10 μM. Seeding was measured 3 days after transfecting biosensor cells with fibril-inhibitor complexes. […] Error bars show the standard deviation of triplicate measurements. […] Seeding (expressed as 10 power) was measured as in a, and IC50 values were calculated from dose-response plots. […] Each column represents the inhibitor response of a different donor. Inhibitor concentrations were 10 μM. Responses to inhibitors were normalized to seeding in the absence of inhibitor, abbreviated “No Inh”, and normalized seeding values for each inhibitor were plotted from maximal inhibitor response (low fractional seeding, left) to minimal response (seeding approaching a value of 1.0, right) for each of the indicated inhibitors.
# (§3) After twenty minutes, 10 μl of fibrils were added to 90 μl of tau biosensor cells. The number of seeded aggregates was determined by imaging the entire well of a 96-well plate in triplicate using a Celigo Image Cytometer (Nexcelom) in the YFP channel. Aggregates were counted using ImageJ^45 by subtracting the background fluorescence from unseeded cells and then counting the number of peaks with fluorescence above background using the built-in Particle Analyzer. […]
# [5] = tested on: crude brain extracts from donors with PSP; assay: Inhibition of seeding by crude PSP brain extracts in tau biosensor cells; settings: 10 μM, N=7 donors
# Procedure: as §2, §3
# [6] = tested on: tau fibrils purified from AD brain; assay: Inhibition of seeding in tau-K18 biosensor cells, AD brain purified tau fibrils as seeds; settings: 10 μM inhibitor, overnight preincubation, seeding measured 3 days after transfection
# Procedure: as §2, §3
# [7] = molecular target: fibrils of recombinant tau40 (Homo sapiens, UniProt P10636); assay: EGCG dose dependence on seeding in tau biosensor cells, fibrils of recombinant tau40 as seeds
# fibrils of recombinant tau40, sequence (P10636 1-441 isoform P10636-8): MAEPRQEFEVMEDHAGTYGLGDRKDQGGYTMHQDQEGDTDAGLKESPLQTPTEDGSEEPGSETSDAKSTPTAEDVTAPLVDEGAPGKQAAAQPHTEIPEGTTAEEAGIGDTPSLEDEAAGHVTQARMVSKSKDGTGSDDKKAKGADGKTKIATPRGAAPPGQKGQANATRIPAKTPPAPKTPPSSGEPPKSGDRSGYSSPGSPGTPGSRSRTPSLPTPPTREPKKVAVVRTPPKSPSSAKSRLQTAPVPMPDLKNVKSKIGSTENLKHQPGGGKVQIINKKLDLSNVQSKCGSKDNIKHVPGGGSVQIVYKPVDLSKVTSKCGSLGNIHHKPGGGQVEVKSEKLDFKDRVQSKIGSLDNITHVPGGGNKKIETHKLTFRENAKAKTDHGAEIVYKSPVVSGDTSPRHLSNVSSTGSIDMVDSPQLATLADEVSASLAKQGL
# Procedure: Error bars show the standard deviation of triplicate measurements. […] (e) EGCG dose dependence on seeding by fibrils of recombinant tau40. Seeding (expressed as 10 power) was measured as in a, and IC50 values were calculated from dose-response plots.
# After twenty minutes, 10 μl of fibrils were added to 90 μl of tau biosensor cells. The number of seeded aggregates was determined by imaging the entire well of a 96-well plate in triplicate using a Celigo Image Cytometer (Nexcelom) in the YFP channel. Aggregates were counted using ImageJ^45 by subtracting the background fluorescence from unseeded cells and then counting the number of peaks with fluorescence above background using the built-in Particle Analyzer. The number of aggregates was normalized to the confluence of each well, and dose-response plots were generated by calculating the average and standard deviations from triplicate measurements. For high quality images, cells were photographed on a ZEISS Axio Observer D1 fluorescence microscope using the YFP fluorescence channel.
smiles,measurement,setting,value
"NCCOCCn1cc(COc2c(O)cc(C(=O)O[C@@H]3Cc4c(O)cc(O)cc4O[C@@H]3c3cc(O)c(O)c(O)c3)cc2O)nn1 [Compound 5a, (2R,3R)-5,7-dihydroxy-2-(3,4,5-trihydroxyphenyl)chroman-3-yl 4-((1-(2-(2-aminoethoxy)ethyl)-H-1,2,3-triazol-4-yl)methoxy)-3,5-dihydroxybenzoate]","inhibition of seeding by crude AD brain extract, Ferumoxytol conjugated analogs",crude AD brain extract,< 50%
"NCCOCCOCCOCCn1cc(COc2c(O)cc(C(=O)O[C@@H]3Cc4c(O)cc(O)cc4O[C@@H]3c3cc(O)c(O)c(O)c3)cc2O)nn1 [Compound 5c, (2R,3R)-5,7-dihydroxy-2-(3,4,5-trihydroxyphenyl)chroman-3-yl 4-((1-(2-(2-(2-(2-aminoethoxy)ethoxy)ethoxy)ethyl)-H-1,2,3-triazol-4-yl)methoxy)-3,5-dihydroxybenzoate]",inhibition of seeding by AD brain extracts compared with EGCG,AD crude brain extracts,potency nearly on par with EGCG itself
O=C(O[C@@H]1Cc2c(O)cc(O)cc2O[C@@H]1c1ccc(O)c(O)c1)c1cc(O)c(O)c(O)c1 [ECG],inhibition of seeding by AD brain extracts compared with EGCG,AD crude brain extracts,inhibit seeding as well as the linker-conjugated analogs
"O=C(O[C@@H]1Cc2c(O)cc(O)cc2O[C@@H]1c1cc(O)c(O)c(O)c1)c1cc(O)c(O)c(O)c1 [EGCG, (−)-epigallocatechin gallate]",stoichiometry N (ITC),[1],0.86
same,Kd,[1]; read-out: affinity (ITC),1600 nM
same,ThT signal of fibrils formed in the presence of inhibitor,tau-K18+ monomer,abruptly fell after reaching a plateau at 10 hr
same,lag time of tau aggregation (ThT),tau-K18+ monomer,no shift in the lag time
same,disaggregation of recombinant tau fibrils (EM),[2],virtually vanish
same,disaggregation of AD brain-derived tau fibrils (EM),[3],most of the AD brain-derived tau fibrils are lost
same,ThT signal of PHFE2 fibrils after addition of inhibitor,PHFE2 fibrils,eliminated nearly any measurable ThT signal
same,fractional seeding by AD brain samples,"[4]; 15 AD crude brain extracts, normalized to no inhibitor",zero
same,inhibition of seeding by crude AD brain extracts,"[4]; N=15 donors, all patient samples",at least 50%
same,blocking of seeding by crude PSP brain extracts,[5],near perfect efficacy
same,inhibition of seeding by crude PSP brain extracts,[5]; all patient samples,at least 50%
same,inhibition of seeding by tau fibrils purified from AD brain,[6],most effective inhibitors of seeding
same,IC50,[7],400 nM
